Among the test systems are SNB-19 CNS; ACHN renal; MDA-MB-231 breast; 786-0 renal; U251 CNS; MOLT-4 leukemia; A498 renal; MALME-3M melanoma; UACC-62 melanoma; SK-MEL-2 melanoma; NCI-H226 lung; UACC-257 melanoma; OVCAR-3 ovarian; SK-MEL-28 melanoma; CCRF-CEM leukemia; K-562 leukemia; MCF7 breast; OVCAR-5 ovarian; IGROV1 ovarian; HL-60(TB) leukemia.
What all share (assay): NCI-60 cell line screen, 48 h

The structures appear in SMILES notation.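 Each compound was tested at five concentrations against cells in 96-well plates for 48 hours. The concentration for full growth arrest is given as TGI.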

For the compound `CCOC(=O)N/N=C(\CC)NO`, the TGI in the test with SNB-19 CNS, in the test on ACHN renal, in the test with MDA-MB-231 breast, with 786-0 renal, in the test on U251 CNS and in the test with MOLT-4 leukemia was greater than 100 µM in each case. In addition, the TGI with A498 renal, with MALME-3M melanoma, in the test on UACC-62 melanoma, with SK-MEL-2 melanoma, in the test with NCI-H226 lung and in the test with UACC-257 melanoma was greater than 100 µM throughout. For the same compound, the TGI in the test on OVCAR-3 ovarian, in the test with SK-MEL-28 melanoma, in the test on CCRF-CEM leukemia, in the test on K-562 leukemia, in the test with MCF7 breast and in the test with OVCAR-5 ovarian was greater than 100 µM in each case. Further, the TGI with IGROV1 ovarian and in the test with HL-60(TB) leukemia was greater than 100 µM each time.
As to `CC(C)(C)n1c(=O)n(-c2ccccc2)n(C(C)(C)C)c1=O`, the TGI in the test on SNB-19 CNS, with ACHN renal, in the test with MDA-MB-231 breast, with 786-0 renal, in the test on U251 CNS and in the test with MOLT-4 leukemia was greater than 100 µM in each case. Further, the TGI in the test on A498 renal, in the test on MALME-3M melanoma, in the test on UACC-62 melanoma, in the test on SK-MEL-2 melanoma, in the test on NCI-H226 lung and in the test with UACC-257 melanoma was greater than 100 µM throughout. Further, the TGI with OVCAR-3 ovarian, in the test on SK-MEL-28 melanoma, with CCRF-CEM leukemia, in the test with K-562 leukemia, in the test on MCF7 breast and in the test with OVCAR-5 ovarian was greater than 100 µM in each case. Also, the TGI with IGROV1 ovarian and in the test with HL-60(TB) leukemia was greater than 100 µM each time.
Regarding `COc1cccc(/C=C2\SC(=S)N(/C=C3\C(=O)Oc4ccccc4C3=O)C2=O)c1O`, the TGI in the test with SNB-19 CNS, with ACHN renal, in the test on MDA-MB-231 breast, in the test on 786-0 renal, in the test with U251 CNS and with MOLT-4 leukemia was greater than 100 µM throughout. In addition, the TGI in the test with A498 renal is 48 µM; in the test on MALME-3M melanoma it was greater than 100 µM; with UACC-62 melanoma, greater than 100 µM; in the test on SK-MEL-2 melanoma, greater than 100 µM; in the test on NCI-H226 lung, greater than 100 µM; with UACC-257 melanoma it was greater than 100 µM. Also, the TGI is 95.7 µM in the test on OVCAR-3 ovarian; greater than 100 µM in the test on SK-MEL-28 melanoma; greater than 100 µM in the test with CCRF-CEM leukemia; greater than 100 µM in the test on K-562 leukemia; greater than 100 µM in the test with MCF7 breast; greater than 100 µM in the test on OVCAR-5 ovarian. The TGI with IGROV1 ovarian and in the test on HL-60(TB) leukemia was greater than 100 µM each time.
On to `N#Cc1c(N)nc(SCc2ccccc2)c(C#N)c1-c1ccc(O)cc1`, for which the TGI with SNB-19 CNS is 41.6 µM; with ACHN renal, 28.9 µM; in the test with MDA-MB-231 breast, 28.5 µM; with 786-0 renal it was 30.6 µM; in the test with U251 CNS, 30.5 µM; in the test on MOLT-4 leukemia, 23.1 µM. For the same compound, the TGI was 30.6 µM in the test on A498 renal; 30 µM with MALME-3M melanoma; 39.8 µM in the test on UACC-62 melanoma; 35.5 µM with SK-MEL-2 melanoma; 48.2 µM in the test on NCI-H226 lung; greater than 52.4 µM with UACC-257 melanoma. For the same compound, the TGI was 33.4 µM with OVCAR-3 ovarian; 33 µM in the test with SK-MEL-28 melanoma; 38.6 µM with CCRF-CEM leukemia; 37.8 µM in the test on K-562 leukemia; 30.6 µM in the test on MCF7 breast; 32.2 µM in the test with OVCAR-5 ovarian. Further, the TGI is 29.9 µM in the test with IGROV1 ovarian and 32.8 µM in the test on HL-60(TB) leukemia.
For `Clc1ccc(C(Cc2ccccc2)c2c(Cl)nc(N3CCNCC3)nc2Cl)cc1` (stereo not given), the TGI with SNB-19 CNS is 28.6 µM; in the test with ACHN renal, 29.9 µM; in the test with MDA-MB-231 breast it was 26.9 µM; in the test with 786-0 renal, 30.1 µM; in the test on U251 CNS, 26.9 µM; in the test on MOLT-4 leukemia it was 15.9 µM. In addition, the TGI in the test on A498 renal came to 24.8 µM; in the test with MALME-3M melanoma, 28.4 µM; in the test with UACC-62 melanoma, 44 µM; in the test on SK-MEL-2 melanoma, 33.2 µM; with NCI-H226 lung, 40.7 µM; in the test with UACC-257 melanoma, 34 µM. Also, the TGI was determined as 28.2 µM with OVCAR-3 ovarian; 26.6 µM with SK-MEL-28 melanoma; 27.2 µM in the test with CCRF-CEM leukemia; 17.8 µM in the test with K-562 leukemia; 20 µM with MCF7 breast; 32 µM with OVCAR-5 ovarian. In addition, the TGI is 24.2 µM with IGROV1 ovarian and 10.7 µM in the test on HL-60(TB) leukemia.

The values above are taken from PubChem BioAssay (NCI).
